Experimental data from US20140135327A1, “N- (2 -AMINOPHENYL) BENZAMIDE DERIVATIVES AS HISTONE DEACETYLASE INHIBITORS” (CANCER RESEARCH TECHNOLOGY LIMITED, priority 2011, published 2014).

Columns and labels:
Format in all cases: biochemical
HDAC 3 = HDAC 3 (Homo sapiens, UniProt O15379); experiment: Caliper HDAC inhibitor profiling assay (microfluidic mobility-shift), HDAC 3; details: 1 hour at room temperature, read-out: IC50 (μM) HDAC3
Procedure: The activity of the compounds of the invention against HDAC 3 (Class I) and HDAC 6 (Class II) can be determined using the Caliper Life Sciences HDAC inhibitor profiling assay, which utilises microfluidic mobility-shift detection.
Reaction buffer: 25 mM Tris/Cl, pH 8.0, 137 mM NaCl, 2.7 mM KCl, 1 mM MgCl2, 0.1 mg/ml BSA (fatty acid free).
Stop Buffer: 100 mM HEPES, pH 7.5, 10 mM EDTA, 0.04% Brij-35, 0.25% CR-3, and 2.5 μM Trichostatin A.
Stopped reactions were assembled in microtiter plate wells by adding 1 μL of the inhibitor compound in DMSO, 15 μL 2× Enzyme, and 15 μL 2× peptide. The reactions were incubated for 1 hour at room temperature, stopped with the addition of 45 μL Stop Solution, and read on the LabChip EZ Reader®. The curves were fit with sigmoidal dose response algorithm using GraphPad Prism.

HDAC 10 = biological target: T1, HDAC 10 (Homo sapiens, UniProt Q969S8); experiment: Fluorescence-based HDAC isoform assay with electrophoretic separation, HDAC 10; details: carboxy-terminal deletion of 38 amino acids, 1 μM FAM-labeled acetylated peptide, 17 h at 25° C.
T1 construct: 6xHis; made in house; host or cells: Sf9 cells (baculovirus)
T1 sequence (Q969S8 1-631): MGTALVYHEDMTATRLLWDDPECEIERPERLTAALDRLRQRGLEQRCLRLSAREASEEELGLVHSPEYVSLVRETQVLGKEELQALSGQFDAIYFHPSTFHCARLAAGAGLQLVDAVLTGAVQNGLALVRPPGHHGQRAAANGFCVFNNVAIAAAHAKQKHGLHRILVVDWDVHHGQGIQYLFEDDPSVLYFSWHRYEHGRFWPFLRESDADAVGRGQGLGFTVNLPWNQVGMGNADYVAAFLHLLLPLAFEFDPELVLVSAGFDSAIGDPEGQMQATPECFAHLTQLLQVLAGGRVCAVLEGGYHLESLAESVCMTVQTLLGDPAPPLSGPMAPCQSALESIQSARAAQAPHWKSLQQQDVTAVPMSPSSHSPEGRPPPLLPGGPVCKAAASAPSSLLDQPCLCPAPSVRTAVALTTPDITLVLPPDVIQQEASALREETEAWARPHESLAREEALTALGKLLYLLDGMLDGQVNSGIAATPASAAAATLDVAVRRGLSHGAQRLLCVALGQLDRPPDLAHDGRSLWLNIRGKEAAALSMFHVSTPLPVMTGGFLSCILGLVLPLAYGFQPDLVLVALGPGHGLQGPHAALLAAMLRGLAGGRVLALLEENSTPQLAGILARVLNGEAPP
Procedure: (§1) The inhibitory effects of the compounds of Examples 7 and 9 above on HDAC activity were determined using a fluorescence-based assay with electrophoretic separation of substrate and product carried out using a microfluidic system followed by quantitation of fluorescence intensity in the substrate and product peaks.
(§2) The assays were performed using isolated HDAC isoforms that had been expressed as 6×His-tagged fusion proteins in a baculovirus expression system in Sf9 cells. HDACs 1, 2, 3, 6, and 8 were expressed as full length fusion proteins. For HDAC-4 and 7 only catalytic domains were expressed (HDAC-4 CAT and HDAC-7 CAT). The HDAC10 fusion protein was expressed as a carboxy-terminal deletion of 38 amino acids (residues 632-669). HDAC3 was coexpressed with a fragment of the SMRT gene (residues 395-489) to generate enzymatically active protein. Purified proteins were incubated with 1 μM carboxyfluorescein (FAM)-labeled acetylated peptide substrate and test compound for 17 h at 25° C. in HDAC assay buffer containing 100 mM HEPES (pH 7.5), 25 mM KCl, 0.1% BSA, and 0.01% Triton X-100. […] Substrate and product were separated electrophoretically using a Caliper LabChip 3000 system with blue laser excitation and green fluorescence detection (CCD2). The fluorescence intensity in the substrate and product peaks was determined using the Well Analyzer software on the Caliper system. […]

HDAC 2 = biological target: T2, HDAC 2 (Homo sapiens, UniProt Q92769); experiment: Fluorescence-based HDAC isoform assay with electrophoretic separation, HDAC 2; details: isolated 6×His-tagged isoform, 1 μM FAM-labeled acetylated peptide, 17 h at 25° C.
T2 construct: HDACs 1, 2, 3, 6, and 8 were expressed as full length fusion proteins; 6xHis; made in house; host or cells: Sf9 cells (baculovirus)
Procedure: as §1, §2

HDAC 4-CAT = biological target: T3, HDAC 4-CAT (Homo sapiens, UniProt P56524); experiment: Fluorescence-based HDAC isoform assay with electrophoretic separation, HDAC 4-CAT; details: catalytic domain only, 1 μM FAM-labeled acetylated peptide, 17 h at 25° C.
T3 construct: For HDAC-4 and 7 only catalytic domains were expressed (HDAC-4 CAT and HDAC-7 CAT); 6xHis; made in house; host or cells: Sf9 cells (baculovirus)
Procedure: as §1, §2

T3 sequence (P56524 655-1084 limits assumed): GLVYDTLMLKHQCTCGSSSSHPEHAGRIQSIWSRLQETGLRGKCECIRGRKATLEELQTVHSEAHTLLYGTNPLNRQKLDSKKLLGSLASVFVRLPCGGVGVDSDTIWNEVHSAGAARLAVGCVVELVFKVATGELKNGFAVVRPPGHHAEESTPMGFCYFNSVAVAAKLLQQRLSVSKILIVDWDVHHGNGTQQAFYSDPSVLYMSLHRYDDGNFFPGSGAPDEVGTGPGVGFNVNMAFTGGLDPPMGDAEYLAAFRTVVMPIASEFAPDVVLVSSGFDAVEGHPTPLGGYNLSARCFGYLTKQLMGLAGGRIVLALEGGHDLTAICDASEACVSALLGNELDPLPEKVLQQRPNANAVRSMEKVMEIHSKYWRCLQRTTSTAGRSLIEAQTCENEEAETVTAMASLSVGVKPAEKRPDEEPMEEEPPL
HDAC 3, sequence (O15379 whole entry, species assumed): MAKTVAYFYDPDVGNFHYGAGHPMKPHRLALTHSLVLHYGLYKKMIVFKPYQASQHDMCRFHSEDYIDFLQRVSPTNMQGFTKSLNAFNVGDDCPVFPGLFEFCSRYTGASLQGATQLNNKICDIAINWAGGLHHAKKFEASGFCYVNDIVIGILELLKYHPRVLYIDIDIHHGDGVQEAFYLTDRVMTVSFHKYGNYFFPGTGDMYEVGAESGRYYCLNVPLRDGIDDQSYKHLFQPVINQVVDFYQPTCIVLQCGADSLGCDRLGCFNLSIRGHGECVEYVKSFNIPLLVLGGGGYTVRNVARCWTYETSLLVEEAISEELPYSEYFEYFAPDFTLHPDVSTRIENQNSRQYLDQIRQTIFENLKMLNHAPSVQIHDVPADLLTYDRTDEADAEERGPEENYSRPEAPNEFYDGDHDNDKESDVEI
HDAC 3, sequence (Q9Y618 395-489 partner limits assumed, species assumed): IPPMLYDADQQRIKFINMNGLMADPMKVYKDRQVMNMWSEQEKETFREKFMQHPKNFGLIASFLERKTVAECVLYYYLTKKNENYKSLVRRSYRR
T2 sequence (Q92769 whole entry, species assumed, the tested form may be a part, canonical isoform): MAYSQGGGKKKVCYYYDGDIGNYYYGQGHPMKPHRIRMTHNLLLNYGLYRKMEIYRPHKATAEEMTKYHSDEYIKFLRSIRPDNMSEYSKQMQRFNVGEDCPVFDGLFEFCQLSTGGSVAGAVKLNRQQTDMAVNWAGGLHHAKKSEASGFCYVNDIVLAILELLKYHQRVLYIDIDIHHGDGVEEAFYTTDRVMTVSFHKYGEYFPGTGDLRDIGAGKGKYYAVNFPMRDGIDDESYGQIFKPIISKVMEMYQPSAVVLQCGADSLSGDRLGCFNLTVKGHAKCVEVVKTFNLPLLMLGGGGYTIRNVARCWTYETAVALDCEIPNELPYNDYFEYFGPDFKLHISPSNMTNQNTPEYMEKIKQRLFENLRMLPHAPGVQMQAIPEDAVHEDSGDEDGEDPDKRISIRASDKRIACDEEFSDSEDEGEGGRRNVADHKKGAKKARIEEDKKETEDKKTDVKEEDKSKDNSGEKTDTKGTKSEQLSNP

| IC50 (HDAC 3) [µM] | IC50 (HDAC 10) [nM] | IC50 (HDAC 2) [nM] | IC50 (HDAC 4-CAT) [nM] | SMILES |
| --- | --- | --- | --- | --- |
| 0.22 | 8040 | 54.4 | 9220 | C=C1CN(Cc2ccc(C(=O)Nc3ccccc3N)cc2)C(=O)c2ccccc21 [Example 7, N-(2-Aminophenyl)-4-[(4-methylene-1-oxo-3,4-dihydroisoquino-2(1H)-yl)methyl]benzamide] |
| 0.78 | > 30000 | 2110 | > 30000 | C=C1CN(Cc2ccc(C(=O)Nc3ccccc3N)cc2)C(CC(=O)O)c2ccccc21 (centres unmarked) [Example 9, [2-(4-{[(2-Aminophenyl)amino]carbonyl}benzyl)-4-methylene-1,2,3,4-tetra hydroisoquinolin-1-yl]acetic acid] |
